ChEMBL document CHEMBL4020792, “Sialidase inhibitory activity of diarylnonanoid and neolignan compounds extracted from the seeds of Myristica fragrans” (Bioorg Med Chem Lett, 2017)

Legend:
Sialidase A [1] = molecular target: T1, Sialidase A (Streptococcus pneumoniae, UniProt P62575); experiment: Noncompetitive inhibition of Streptococcus pneumoniae sialidase NanA using 4-methylumbelliferyl-alpha-D-N-acetylneuraminic acid as substrate after 60 mins by Lineweaver-Burk plot/Dixon plot analysis
Streptococcus pneumoniae [2] = experiment: (§1) Inhibition of Streptococcus pneumoniae sialidase NanB using 4-methylumbelliferyl-alpha-D-N-acetylneuraminic acid as substrate after 60 mins by FRET assay
[3] = as §1
[4] = molecular target: Sialidase A (Streptococcus pneumoniae) (UniProt P62575); experiment: (§2) Inhibition of Streptococcus pneumoniae sialidase NanA using 4-methylumbelliferyl-alpha-D-N-acetylneuraminic acid as substrate after 60 mins by FRET assay
Sequence of Sialidase A (Streptococcus pneumoniae) (P62575 whole entry): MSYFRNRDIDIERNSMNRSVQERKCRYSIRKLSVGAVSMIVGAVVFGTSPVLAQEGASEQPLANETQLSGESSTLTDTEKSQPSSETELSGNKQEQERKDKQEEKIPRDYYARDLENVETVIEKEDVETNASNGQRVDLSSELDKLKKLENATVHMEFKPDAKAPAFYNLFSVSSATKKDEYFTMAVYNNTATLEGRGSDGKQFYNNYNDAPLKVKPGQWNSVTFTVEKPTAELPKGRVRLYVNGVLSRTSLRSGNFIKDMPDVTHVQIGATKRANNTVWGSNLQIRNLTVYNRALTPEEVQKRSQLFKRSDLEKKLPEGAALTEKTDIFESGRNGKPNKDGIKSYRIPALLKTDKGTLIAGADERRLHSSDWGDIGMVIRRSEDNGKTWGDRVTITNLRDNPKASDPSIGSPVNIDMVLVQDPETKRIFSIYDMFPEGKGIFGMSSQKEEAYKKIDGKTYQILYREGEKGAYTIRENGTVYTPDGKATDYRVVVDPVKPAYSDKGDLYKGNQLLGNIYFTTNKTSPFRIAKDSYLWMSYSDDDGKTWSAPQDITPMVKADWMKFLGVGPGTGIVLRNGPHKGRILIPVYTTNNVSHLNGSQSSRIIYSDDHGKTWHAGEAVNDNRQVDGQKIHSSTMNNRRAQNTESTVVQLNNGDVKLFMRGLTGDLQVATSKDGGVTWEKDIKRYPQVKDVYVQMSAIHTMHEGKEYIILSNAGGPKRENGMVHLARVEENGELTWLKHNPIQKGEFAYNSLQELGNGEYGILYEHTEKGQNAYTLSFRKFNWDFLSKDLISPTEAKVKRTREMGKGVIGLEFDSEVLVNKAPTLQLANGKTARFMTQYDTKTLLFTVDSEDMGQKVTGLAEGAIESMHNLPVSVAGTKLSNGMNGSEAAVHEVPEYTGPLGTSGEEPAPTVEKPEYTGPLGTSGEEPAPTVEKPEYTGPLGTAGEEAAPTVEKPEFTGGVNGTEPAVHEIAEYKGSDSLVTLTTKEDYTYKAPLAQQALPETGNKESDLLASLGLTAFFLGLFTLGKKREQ

Sialidase A [5] = molecular target: T1, Sialidase A; experiment: as §2
Streptococcus pneumoniae [6] = experiment: (§3) Inhibition of Streptococcus pneumoniae sialidase NanC using 4-methylumbelliferyl-alpha-D-N-acetylneuraminic acid as substrate after 60 mins by FRET assay
[7] = as §3
[8] = Noncompetitive inhibition of Streptococcus pneumoniae sialidase NanB using 4-methylumbelliferyl-alpha-D-N-acetylneuraminic acid as substrate after 60 mins by Lineweaver-Burk plot/Dixon plot analysis
[9] = Noncompetitive inhibition of Streptococcus pneumoniae sialidase NanC using 4-methylumbelliferyl-alpha-D-N-acetylneuraminic acid as substrate after 60 mins by Lineweaver-Burk plot/Dixon plot analysis
Sialidase A [10] = molecular target: T1, Sialidase A; experiment: Competitive inhibition of Streptococcus pneumoniae sialidase NanA using 4-methylumbelliferyl-alpha-D-N-acetylneuraminic acid as substrate after 60 mins by Lineweaver-Burk plot/Dixon plot analysis

T1 sequence (P62575 whole entry): as above

Structure (SMILES) | Ki (Sialidase A [1]) [µM] | inhibition (Streptococcus pneumoniae [2]) | IC50 ([3]; read-out: IC50) [µM] | inhibition [4] | IC50 (Sialidase A [5]) [µM] | inhibition (Streptococcus pneumoniae [6]) | IC50 ([7]; read-out: IC50) [µM] | Ki [8] [µM] | Ki [9] [µM] | IC50 [3] | IC50 [7] | Ki (Sialidase A [10]) [µM]
COc1cc([C@H]2O[C@@H](c3ccc(O)c(OC)c3)[C@@H](C)[C@@H]2C)ccc1O | 21.9 | Dose-dependent effect | 331 | Dose-dependent effect | 37.2 | Dose-dependent effect | 274 |  |  |  |  | 
C=CCc1cc(O)c(OC)c(O)c1 | 4.9 | Dose-dependent effect | 27.1 | Dose-dependent effect | 2 | Dose-dependent effect | 60.5 | 74 | 91.8 |  |  | 
COc1cc([C@@H](O)[C@@H](C)Oc2c(OC)cc(/C=C/CO)cc2OC)ccc1O | 3 | Dose-dependent effect | 20.9 | Dose-dependent effect | 1.6 | Dose-dependent effect | 24.6 | 39.2 | 37.8 |  |  | 
C=CCc1cc(OC)c(O[C@@H](C)[C@H](O)c2ccc(O)c(OC)c2)c(OC)c1 | 15.1 | Dose-dependent effect | 229 | Dose-dependent effect | 25.6 | Dose-dependent effect | 103 |  |  |  |  | 
C/C=C/c1cc(OC)c2c(c1)[C@H](C)[C@@H](c1cc(OC)c3c(c1)OCO3)O2 | 47.5 | Dose-dependent effect | 92.1 | Dose-dependent effect | 44.2 | Dose-dependent effect | 317 |  |  |  |  | 
C=CCc1cc(OC)c(O[C@H](C)[C@H](OC(C)=O)c2ccc(OC)c(OC)c2)c(OC)c1 |  |  |  |  | 295 |  |  |  |  | Not Active | Not Active | 
C/C=C/c1cc(OC)c2c(c1)[C@H](C)[C@@H](c1ccc3c(c1)OCO3)O2 [(-)-LICARIN B] | 1.3 | Dose-dependent effect | 14 | Dose-dependent effect | 1.5 | Dose-dependent effect | 30.7 | 13.5 | 12.1 |  |  | 
C/C=C/c1cc(OC)c2c(c1)[C@H](C)[C@@H](c1ccc(O)c(OC)c1)O2 [LICARIN A] | 9.4 | Dose-dependent effect | 95.8 | Dose-dependent effect | 7.9 | Dose-dependent effect | 113 |  |  |  |  | 
O=C(CCCCCCCCc1ccc(O)cc1)c1c(O)cccc1O [MALABARICONE B] |  | Dose-dependent effect | 5.7 | Dose-dependent effect | 0.4 | Dose-dependent effect | 14.3 | 5.6 | 5.8 |  |  | 0.5
O=C(CCCCCCCCc1ccc(O)c(O)c1)c1c(O)cccc1O [MALABARICONE C] |  | Dose-dependent effect | 3.6 | Dose-dependent effect | 0.3 | Dose-dependent effect | 2.9 | 3 | 2.1 |  |  | 0.1
C=CCc1cc(OC)c(O)c(OC)c1 [METHOXYEUGENOL] | 4.2 | Dose-dependent effect | 77.6 | Dose-dependent effect | 6.9 | Dose-dependent effect | 33.6 |  | 30.2 |  |  | 
